Reference: ChEMBL document CHEMBL1926646 (Bioorg Med Chem, 2011)
pIC50: −log10 of the molar value. Activity calls are given as the source filed them. The calls are words filed in the database; no cut-off is given here.

Key:
[1] = Drug excretion in dog feces assessed as unchanged drug at 1 mg/kg, iv measured over 24 hrs; assay type: ADME, organism-based, Canis lupus familiaris; parameters: dose 1 mg/kg, route intravenous; conditions: faeces, read-out: AE
[2] = Intrinsic clearance in rat liver microsomes; assay type: ADME, Microsome
[3] = Intrinsic clearance in dog liver microsomes; assay type: ADME, Canis lupus familiaris, Microsome
[4] = Intrinsic clearance in monkey liver microsomes; assay type: ADME, Macaca mulatta, Microsome; conditions: rhesus monkey
[5] = Intrinsic clearance in human liver microsomes; assay type: ADME, Microsome
[6] = Drug level in Sprague-Dawley rat plasma at 3 mg/kg at Tmax; assay type: ADME, organism-based; parameters: dose 3 mg/kg; conditions: read-out: Drug uptake
Dipeptidyl peptidase 8 = Dipeptidyl peptidase 8 (Homo sapiens, UniProt Q6V1X1); assay: Inhibition of human recombinant DPP-8 expressed in Sf9 cells using H-Gly-Pro-AMC as substrate preincubated for 30 mins before substrate addition measured after 20 mins by fluorescence assay
Sequence of Dipeptidyl peptidase 8 (Q6V1X1 whole entry): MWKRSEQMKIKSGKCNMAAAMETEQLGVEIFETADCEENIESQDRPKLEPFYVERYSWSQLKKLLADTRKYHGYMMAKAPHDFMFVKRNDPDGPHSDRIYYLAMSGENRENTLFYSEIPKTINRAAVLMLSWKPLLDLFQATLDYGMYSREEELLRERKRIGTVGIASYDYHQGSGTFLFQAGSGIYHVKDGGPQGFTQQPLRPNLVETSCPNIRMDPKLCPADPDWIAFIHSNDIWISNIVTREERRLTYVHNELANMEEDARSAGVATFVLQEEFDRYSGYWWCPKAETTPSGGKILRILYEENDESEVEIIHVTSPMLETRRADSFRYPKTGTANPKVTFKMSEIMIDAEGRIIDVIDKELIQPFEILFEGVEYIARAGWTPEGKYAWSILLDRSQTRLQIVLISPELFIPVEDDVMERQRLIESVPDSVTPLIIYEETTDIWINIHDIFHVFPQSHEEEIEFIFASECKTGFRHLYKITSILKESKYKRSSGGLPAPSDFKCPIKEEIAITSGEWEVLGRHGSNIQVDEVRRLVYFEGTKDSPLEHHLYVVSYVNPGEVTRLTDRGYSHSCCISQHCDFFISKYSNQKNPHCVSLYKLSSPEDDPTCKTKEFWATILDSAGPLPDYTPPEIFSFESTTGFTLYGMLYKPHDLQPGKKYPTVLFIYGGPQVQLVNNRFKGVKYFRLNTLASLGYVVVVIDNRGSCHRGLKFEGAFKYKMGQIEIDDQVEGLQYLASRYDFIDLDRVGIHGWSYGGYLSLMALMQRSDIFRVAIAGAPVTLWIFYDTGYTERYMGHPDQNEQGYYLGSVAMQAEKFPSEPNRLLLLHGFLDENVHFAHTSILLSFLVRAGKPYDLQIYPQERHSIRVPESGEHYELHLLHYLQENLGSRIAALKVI

Dipeptidyl peptidase 9 = Dipeptidyl peptidase 9 (Homo sapiens, UniProt Q86TI2); assay: Inhibition of human recombinant DPP-9 expressed in Sf9 cells using H-Gly-Pro-AMC as substrate preincubated for 30 mins before substrate addition measured after 20 mins by fluorescence assay
Sequence of Dipeptidyl peptidase 9 (Q86TI2 whole entry): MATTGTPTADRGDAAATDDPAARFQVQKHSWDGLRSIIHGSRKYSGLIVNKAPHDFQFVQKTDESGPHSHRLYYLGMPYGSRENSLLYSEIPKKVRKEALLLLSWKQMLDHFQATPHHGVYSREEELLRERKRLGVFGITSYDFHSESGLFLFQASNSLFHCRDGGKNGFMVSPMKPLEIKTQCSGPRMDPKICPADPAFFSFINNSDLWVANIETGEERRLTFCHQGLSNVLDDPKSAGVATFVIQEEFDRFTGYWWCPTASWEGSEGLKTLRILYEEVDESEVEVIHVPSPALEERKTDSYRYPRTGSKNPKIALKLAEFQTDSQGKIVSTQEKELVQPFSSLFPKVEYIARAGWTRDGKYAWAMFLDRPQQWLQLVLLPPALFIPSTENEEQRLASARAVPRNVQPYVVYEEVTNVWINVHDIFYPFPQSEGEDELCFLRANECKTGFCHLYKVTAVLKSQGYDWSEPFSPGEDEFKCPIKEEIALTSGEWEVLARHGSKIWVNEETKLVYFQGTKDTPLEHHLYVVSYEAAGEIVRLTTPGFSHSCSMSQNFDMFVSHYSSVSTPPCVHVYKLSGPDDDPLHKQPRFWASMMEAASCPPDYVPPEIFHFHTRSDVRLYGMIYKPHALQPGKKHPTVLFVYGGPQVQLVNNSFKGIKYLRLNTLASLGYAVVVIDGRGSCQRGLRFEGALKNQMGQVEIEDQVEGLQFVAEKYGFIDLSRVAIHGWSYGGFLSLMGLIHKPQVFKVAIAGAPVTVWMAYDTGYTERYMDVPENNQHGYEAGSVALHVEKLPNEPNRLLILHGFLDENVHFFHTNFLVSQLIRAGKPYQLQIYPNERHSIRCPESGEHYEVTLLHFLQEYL

[7] = Total clearance in Sprague-Dawley rat at 1 mg/kg, iv; assay type: ADME, organism-based; parameters: dose 1 mg/kg, route intravenous; conditions: in vivo
Rattus norvegicus [8] = assay: Volume of distribution at steady state in Sprague-Dawley rat at 1 mg/kg, iv; assay type: ADME, organism-based; parameters: dose 1 mg/kg, route intravenous; conditions: in vivo
[9] = Cmax in Sprague-Dawley rat at 10 mg/kg, po; assay type: ADME, organism-based; parameters: dose 10 mg/kg, route oral; conditions: in vivo
[10] = Cmax in Sprague-Dawley rat at 3 mg/kg, po; assay type: ADME, organism-based; parameters: dose 3 mg/kg, route oral; conditions: in vivo
[11] = Tmax in Sprague-Dawley rat at 10 mg/kg, po; assay type: ADME, organism-based; parameters: dose 10 mg/kg, route oral; conditions: in vivo
[12] = Tmax in Sprague-Dawley rat at 3 mg/kg, po; assay type: ADME, organism-based; parameters: dose 3 mg/kg, route oral; conditions: in vivo
[13] = Terminal half life in Sprague-Dawley rat at 10 mg/kg, po; assay type: ADME, organism-based; parameters: dose 10 mg/kg, route oral; conditions: in vivo, read-out: beta t1/2 (converted)
Rattus norvegicus [14] = assay: AUC in Sprague-Dawley rat at 10 mg/kg, po; assay type: ADME, organism-based, Plasma; parameters: dose 10 mg/kg, route oral; conditions: in vivo
[15] = Oral bioavailability in Sprague-Dawley rat at 10 mg/kg; assay type: ADME, organism-based; conditions: in vivo
[16] = Total clearance in Beagle dog at 0.2 mg/kg, iv; assay type: ADME, organism-based, Canis lupus familiaris; parameters: dose 0.2 mg/kg, route intravenous; conditions: in vivo
Canis familiaris [17] = assay: Volume of distribution at steady state in Beagle dog at 0.2 mg/kg, iv; assay type: ADME, organism-based, Canis lupus familiaris; parameters: dose 0.2 mg/kg, route intravenous; conditions: in vivo
[18] = Cmax in Beagle dog at 0.5 mg/kg, po; assay type: ADME, organism-based, Canis lupus familiaris; parameters: dose 0.5 mg/kg, route oral; conditions: in vivo
[19] = Tmax in Beagle dog at 0.5 mg/kg, po; assay type: ADME, organism-based, Canis lupus familiaris; parameters: dose 0.5 mg/kg, route oral; conditions: in vivo
[20] = Terminal half life in Beagle dog at 0.5 mg/kg, po; assay type: ADME, organism-based, Canis lupus familiaris; parameters: dose 0.5 mg/kg, route oral; conditions: in vivo, read-out: beta t1/2 (converted)
Canis familiaris [21] = assay: AUC in Beagle dog at 0.5 mg/kg, po; assay type: ADME, organism-based, Canis lupus familiaris, Plasma; parameters: dose 0.5 mg/kg, route oral; conditions: in vivo
[22] = Oral bioavailability in Beagle dog at 0.5 mg/kg; assay type: ADME, organism-based, Canis lupus familiaris; conditions: in vivo
[23] = Plasma protein binding in rat at 20 ng/ml after 0.5 hrs by LC-MS/MS analysis; assay type: ADME, cell-free; conditions: read-out: PPB (converted)
[24] = Plasma protein binding in rat at 2000 ng/ml after 0.5 hrs by LC-MS/MS analysis; assay type: ADME, cell-free; conditions: read-out: PPB (converted)
[25] = Plasma protein binding in dog at 20 ng/ml after 0.5 hrs by LC-MS/MS analysis; assay type: ADME, cell-free, Canis lupus familiaris; conditions: read-out: PPB (converted)
[26] = Plasma protein binding in dog at 2000 ng/ml after 0.5 hrs by LC-MS/MS analysis; assay type: ADME, cell-free, Canis lupus familiaris; conditions: read-out: PPB (converted)
[27] = Plasma protein binding in human at 20 ng/ml after 0.5 hrs by LC-MS/MS analysis; assay type: ADME, cell-free; conditions: read-out: PPB (converted)
[28] = Plasma protein binding in human at 2000 ng/ml after 0.5 hrs by LC-MS/MS analysis; assay type: ADME, cell-free; conditions: read-out: PPB (converted)
Rattus norvegicus [29] = assay: Inhibition of plasma DPP-4 activity in Wistar/ST rat at 3 mg/kg, po pretreated 30 mins before glucose challenge measured for 2 hrs during oral glucose tolerance test; assay type: functional
Rattus norvegicus [30] = assay: Inhibition of plasma DPP-4 activity in Wistar/ST rat at 0.1 mg/kg, po pretreated 30 mins before glucose challenge measured for 2 hrs during oral glucose tolerance test; assay type: functional
Cytochrome P450 3A4 [31] = molecular target: T1, Cytochrome P450 3A4 (Homo sapiens, UniProt P08684); assay: Inhibition of CYP3A4; assay type: ADME
T1 sequence (P08684 whole entry): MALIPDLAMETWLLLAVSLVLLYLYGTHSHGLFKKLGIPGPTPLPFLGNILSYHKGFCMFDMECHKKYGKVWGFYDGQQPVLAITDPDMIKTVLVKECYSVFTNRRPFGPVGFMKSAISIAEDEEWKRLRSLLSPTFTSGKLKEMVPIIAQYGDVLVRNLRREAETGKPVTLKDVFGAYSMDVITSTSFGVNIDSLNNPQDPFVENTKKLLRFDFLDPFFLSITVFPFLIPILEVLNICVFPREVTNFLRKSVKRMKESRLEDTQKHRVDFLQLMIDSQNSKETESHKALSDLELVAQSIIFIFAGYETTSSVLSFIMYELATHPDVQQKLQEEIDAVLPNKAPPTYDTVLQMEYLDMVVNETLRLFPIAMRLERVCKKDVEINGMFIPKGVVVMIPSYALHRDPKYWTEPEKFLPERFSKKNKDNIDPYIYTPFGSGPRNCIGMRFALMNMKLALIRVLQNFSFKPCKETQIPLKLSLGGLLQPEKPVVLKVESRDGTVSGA

Cytochrome P450 2C19 = Cytochrome P450 2C19 (Homo sapiens, UniProt P33261); assay: Inhibition of CYP2C19; assay type: ADME
Sequence of Cytochrome P450 2C19 (P33261 whole entry): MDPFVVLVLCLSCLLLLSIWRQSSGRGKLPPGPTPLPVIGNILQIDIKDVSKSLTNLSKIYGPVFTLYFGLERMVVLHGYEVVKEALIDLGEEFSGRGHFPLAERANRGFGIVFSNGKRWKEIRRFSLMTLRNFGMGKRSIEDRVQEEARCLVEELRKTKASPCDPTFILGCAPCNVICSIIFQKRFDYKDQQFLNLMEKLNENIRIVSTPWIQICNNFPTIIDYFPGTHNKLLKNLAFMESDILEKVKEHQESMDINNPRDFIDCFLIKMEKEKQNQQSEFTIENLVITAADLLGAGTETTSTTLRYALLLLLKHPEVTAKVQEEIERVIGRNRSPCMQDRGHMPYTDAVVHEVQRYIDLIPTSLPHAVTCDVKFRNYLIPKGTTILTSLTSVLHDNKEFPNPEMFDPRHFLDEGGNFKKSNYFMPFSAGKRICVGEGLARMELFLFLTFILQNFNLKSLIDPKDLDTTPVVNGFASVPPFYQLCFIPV

Cytochrome P450 2C9 [32] = molecular target: T2, Cytochrome P450 2C9 (Homo sapiens, UniProt P11712); assay: Inhibition of CYP2C9; assay type: ADME
T2 sequence (P11712 whole entry): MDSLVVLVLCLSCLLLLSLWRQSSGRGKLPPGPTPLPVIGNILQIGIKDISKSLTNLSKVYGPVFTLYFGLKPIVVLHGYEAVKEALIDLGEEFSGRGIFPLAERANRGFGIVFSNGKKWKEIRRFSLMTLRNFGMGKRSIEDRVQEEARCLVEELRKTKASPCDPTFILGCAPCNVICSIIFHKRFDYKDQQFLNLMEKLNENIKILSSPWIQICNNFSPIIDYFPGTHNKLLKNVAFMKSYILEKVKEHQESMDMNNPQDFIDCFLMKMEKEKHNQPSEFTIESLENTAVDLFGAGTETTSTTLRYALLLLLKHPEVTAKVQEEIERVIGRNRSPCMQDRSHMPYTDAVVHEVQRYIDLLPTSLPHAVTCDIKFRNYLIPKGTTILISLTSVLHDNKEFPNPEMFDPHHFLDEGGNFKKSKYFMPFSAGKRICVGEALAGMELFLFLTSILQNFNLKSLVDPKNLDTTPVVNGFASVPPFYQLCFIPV

Cytochrome P450 1A2 [33] = molecular target: T3, Cytochrome P450 1A2 (Homo sapiens, UniProt P05177); assay: Inhibition of CYP1A2; assay type: ADME
T3 sequence (P05177 whole entry): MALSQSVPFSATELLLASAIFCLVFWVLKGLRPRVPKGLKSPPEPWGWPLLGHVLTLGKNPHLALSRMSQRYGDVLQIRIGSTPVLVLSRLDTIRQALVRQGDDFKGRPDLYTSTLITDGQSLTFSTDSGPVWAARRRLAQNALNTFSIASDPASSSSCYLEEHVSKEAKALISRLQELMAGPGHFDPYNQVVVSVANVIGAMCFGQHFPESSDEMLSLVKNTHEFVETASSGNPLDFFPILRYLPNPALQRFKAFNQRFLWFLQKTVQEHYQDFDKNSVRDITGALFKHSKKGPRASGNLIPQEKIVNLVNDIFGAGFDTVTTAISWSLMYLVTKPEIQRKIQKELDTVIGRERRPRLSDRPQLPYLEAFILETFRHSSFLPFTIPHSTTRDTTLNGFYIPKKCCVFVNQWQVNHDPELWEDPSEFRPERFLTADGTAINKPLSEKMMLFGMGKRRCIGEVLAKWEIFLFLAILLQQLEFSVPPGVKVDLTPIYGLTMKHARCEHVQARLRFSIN

Cytochrome P450 2D6 = Cytochrome P450 2D6 (Homo sapiens, UniProt P10635); assay: Inhibition of CYP2D6; assay type: ADME
Sequence of Cytochrome P450 2D6 (P10635 whole entry): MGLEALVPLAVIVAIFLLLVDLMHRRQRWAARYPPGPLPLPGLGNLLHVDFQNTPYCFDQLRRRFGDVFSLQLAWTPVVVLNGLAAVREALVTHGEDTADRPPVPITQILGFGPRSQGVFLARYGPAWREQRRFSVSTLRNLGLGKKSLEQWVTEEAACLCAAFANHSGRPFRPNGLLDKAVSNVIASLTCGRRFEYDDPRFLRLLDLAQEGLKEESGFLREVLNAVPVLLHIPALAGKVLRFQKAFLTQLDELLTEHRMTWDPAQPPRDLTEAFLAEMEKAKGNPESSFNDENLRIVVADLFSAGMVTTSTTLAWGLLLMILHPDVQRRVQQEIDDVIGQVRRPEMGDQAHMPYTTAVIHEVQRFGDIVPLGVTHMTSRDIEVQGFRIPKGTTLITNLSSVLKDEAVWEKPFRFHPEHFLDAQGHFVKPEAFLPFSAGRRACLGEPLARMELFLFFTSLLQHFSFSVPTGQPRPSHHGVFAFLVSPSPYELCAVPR

Cytochrome P450 3A4 [34] = molecular target: T1, Cytochrome P450 3A4; assay: Induction of CYP3A4 at 50 uM; assay type: ADME
Cytochrome P450 2C8 = molecular target: T4, Cytochrome P450 2C8 (Homo sapiens, UniProt P10632); assay: Induction of CYP2C8 at 50 uM; assay type: ADME
T4 sequence (P10632 whole entry): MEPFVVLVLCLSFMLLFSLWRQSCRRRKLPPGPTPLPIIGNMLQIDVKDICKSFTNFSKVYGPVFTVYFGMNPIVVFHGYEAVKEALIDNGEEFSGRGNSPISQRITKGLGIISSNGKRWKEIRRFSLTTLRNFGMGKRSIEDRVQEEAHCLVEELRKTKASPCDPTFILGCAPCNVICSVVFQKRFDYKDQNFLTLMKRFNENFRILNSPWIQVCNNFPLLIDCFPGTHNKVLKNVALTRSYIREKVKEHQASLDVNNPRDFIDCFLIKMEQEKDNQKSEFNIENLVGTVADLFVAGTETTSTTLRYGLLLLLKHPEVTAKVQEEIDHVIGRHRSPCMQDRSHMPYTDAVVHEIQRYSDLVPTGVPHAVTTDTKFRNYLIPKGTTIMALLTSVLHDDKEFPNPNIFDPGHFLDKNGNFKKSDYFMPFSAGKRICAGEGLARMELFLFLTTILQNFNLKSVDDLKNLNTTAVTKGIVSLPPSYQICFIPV

Cytochrome P450 2C9 [35] = molecular target: T2, Cytochrome P450 2C9; assay: Induction of CYP2C9 at 50 uM; assay type: ADME
Cytochrome P450 1A2 [36] = molecular target: T3, Cytochrome P450 1A2; assay: Induction of CYP1A2 at 50 uM; assay type: ADME
[37] = molecular target: Voltage-gated inwardly rectifying potassium channel KCNH2 (Homo sapiens, UniProt Q12809); assay: Inhibition of human ERG expressed in HEK293 cells by patch clamp assay; assay type: cell-based
Sequence of Voltage-gated inwardly rectifying potassium channel KCNH2 (Q12809 whole entry): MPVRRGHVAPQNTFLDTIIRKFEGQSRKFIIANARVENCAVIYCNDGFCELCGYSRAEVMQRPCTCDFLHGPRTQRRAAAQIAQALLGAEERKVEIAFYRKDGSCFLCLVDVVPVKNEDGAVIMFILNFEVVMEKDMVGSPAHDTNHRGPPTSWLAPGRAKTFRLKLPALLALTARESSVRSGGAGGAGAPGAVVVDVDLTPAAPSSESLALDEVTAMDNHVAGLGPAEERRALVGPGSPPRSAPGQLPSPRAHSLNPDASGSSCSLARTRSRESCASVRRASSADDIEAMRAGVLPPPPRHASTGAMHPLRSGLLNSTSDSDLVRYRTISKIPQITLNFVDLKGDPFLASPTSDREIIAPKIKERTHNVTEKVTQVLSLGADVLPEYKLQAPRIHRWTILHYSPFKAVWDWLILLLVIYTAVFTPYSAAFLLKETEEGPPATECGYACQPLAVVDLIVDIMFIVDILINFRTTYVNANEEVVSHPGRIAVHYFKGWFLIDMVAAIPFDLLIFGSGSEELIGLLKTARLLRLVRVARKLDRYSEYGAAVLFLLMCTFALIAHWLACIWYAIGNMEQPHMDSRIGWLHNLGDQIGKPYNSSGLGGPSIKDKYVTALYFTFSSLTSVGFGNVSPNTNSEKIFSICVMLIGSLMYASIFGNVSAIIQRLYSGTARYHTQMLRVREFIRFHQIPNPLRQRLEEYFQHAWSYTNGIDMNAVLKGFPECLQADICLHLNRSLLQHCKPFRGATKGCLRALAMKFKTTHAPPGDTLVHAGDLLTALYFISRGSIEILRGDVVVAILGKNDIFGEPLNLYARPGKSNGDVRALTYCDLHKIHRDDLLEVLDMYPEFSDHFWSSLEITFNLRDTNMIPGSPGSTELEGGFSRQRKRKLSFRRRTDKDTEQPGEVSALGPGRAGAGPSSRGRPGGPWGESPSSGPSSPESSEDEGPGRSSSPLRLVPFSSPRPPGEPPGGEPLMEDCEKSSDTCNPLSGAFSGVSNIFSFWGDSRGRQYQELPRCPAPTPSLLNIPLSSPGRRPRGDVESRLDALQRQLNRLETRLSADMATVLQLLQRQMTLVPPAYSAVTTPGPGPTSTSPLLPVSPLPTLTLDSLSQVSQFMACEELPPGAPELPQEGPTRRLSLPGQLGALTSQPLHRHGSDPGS

Salmonella typhimurium = assay: Mutagenic activity in Salmonella Typhimurium by Ames test; assay type: toxicity, organism-based; conditions: salmonella enterica subsp. enterica serovar typhimurium
[38] = Drug excretion in bile-duct cannulated Sprague-Dawley rat urine assessed as unchanged drug at 1 mg/kg, iv measured over 24 hrs; assay type: ADME, organism-based; parameters: dose 1 mg/kg, route intravenous; conditions: read-out: AE
[39] = Drug excretion in bile-duct cannulated Sprague-Dawley rat bile assessed as unchanged drug at 1 mg/kg, iv measured over 24 hrs; assay type: ADME, organism-based; parameters: dose 1 mg/kg, route intravenous; conditions: read-out: AE
[40] = Drug excretion in bile-duct cannulated Sprague-Dawley rat urine assessed as unchanged drug at 5 mg/kg, iv measured over 24 hrs; assay type: ADME, organism-based; parameters: dose 5 mg/kg, route intravenous; conditions: read-out: AE
[41] = Drug excretion in bile-duct cannulated Sprague-Dawley rat bile assessed as unchanged drug at 5 mg/kg, iv measured over 24 hrs; assay type: ADME, organism-based; parameters: dose 5 mg/kg, route intravenous; conditions: read-out: AE
[42] = Drug excretion in dog urine assessed as unchanged drug at 1 mg/kg, iv measured over 24 hrs; assay type: ADME, organism-based, Canis lupus familiaris; parameters: dose 1 mg/kg, route intravenous; conditions: read-out: AE
Rattus norvegicus [43] = assay: Inhibition of plasma DPP-4 activity in orally dosed Wistar/ST rat pretreated 30 mins before glucose challenge measured for 2 hrs during oral glucose tolerance test; assay type: functional, organism-based
Rattus norvegicus [44] = assay: Antidiabetic activity in Wistar/ST rat plasma assessed as reduction in glucose AUC (0 to 60 mins) at 1 mg/kg, po pretreated 30 mins before glucose challenge measured for 2 hrs by oral glucose tolerance test; assay type: functional, organism-based; parameters: dose 1 mg/kg
Rattus norvegicus [45] = assay: Increase in insulin level in Wistar/ST rat at 0.1 to 1 mg/kg, po pretreated 30 mins before glucose challenge measured after 10 mins; assay type: functional, organism-based
Dipeptidyl peptidase 2 = Dipeptidyl peptidase 2 (Homo sapiens, UniProt Q9UHL4); assay: Inhibition of DPP-2 expressed in human Caco-2 cells using H-Lys-Ala-AMC as substrate preincubated for 30 mins before substrate addition measured after 20 mins by fluorescence assay; assay type: cell-based

Cc1cc2ncc(C(=O)NCC(C)(C)NCC(=O)N3CCC[C@H]3C#N)cn2n1.Cl [ANAGLIPTIN HYDROCHLORIDE]
dose excreted at 24 h [1]: 24%
CLint scaled [2]: 23.3 mL/min/kg
CLint scaled [3]: 1.67 mL/min/kg
CLint scaled [4]: 8.33 mL/min/kg
CLint scaled [5]: 5 mL/min/kg
Cmax [6]: 14 nM
pIC50 (Dipeptidyl peptidase 8): 4.17
pIC50 (Dipeptidyl peptidase 9): 4.22
clearance [7]: 33.3 mL/min/kg
Vdss (Rattus norvegicus [8]): 0.68 L/kg
Cmax [9]: 309 ng/mL
Cmax [10]: 62 ng/mL
Tmax [11]: 0.8 h
Tmax [12]: 2.3 h
half-life [13]: 1.9 h
AUC (Rattus norvegicus [14]): 1160 ng·h/mL
bioavailability [15]: 23%
clearance [16]: 10.8 mL/min/kg
Vdss (Canis familiaris [17]): 0.83 L/kg
Cmax [18]: 261 ng/mL
Tmax [19]: 1.5 h
half-life [20]: 1 h
AUC (Canis familiaris [21]): 824 ng·h/mL
bioavailability [22]: 100%
fraction unbound at 0.5 h, 20 ng/ml [23]: 0.227
fraction unbound at 0.5 h, 2000 ng/ml [24]: 0.229
fraction unbound at 0.5 h, 20 ng/ml [25]: 0.352
fraction unbound at 0.5 h, 2000 ng/ml [26]: 0.482
fraction unbound at 0.5 h, 20 ng/ml [27]: 0.708
fraction unbound at 0.5 h, 2000 ng/ml [28]: 0.736
inhibition in vivo at 3 mg/kg (Rattus norvegicus [29]): 95%
inhibition in vivo at 0.1 mg/kg (Rattus norvegicus [30]): 30%
pIC50 (Cytochrome P450 3A4 [31]): < 5.00
pIC50 (Cytochrome P450 2C19): < 5.00
pIC50 (Cytochrome P450 2C9 [32]): < 5.00
pIC50 (Cytochrome P450 1A2 [33]): < 5.00
pIC50 (Cytochrome P450 2D6): < 5.00
Activity (Cytochrome P450 3A4 [34]): Not Active
Activity (Cytochrome P450 2C8): Not Active
Activity (Cytochrome P450 2C9 [35]): Not Active
Activity (Cytochrome P450 1A2 [36]): Not Active
pIC50 [37]: < 3.30
Activity (Salmonella typhimurium): Non-toxic
dose excreted at 24 h [38]: 30%
dose excreted at 24 h [39]: 13%
dose excreted at 24 h [40]: 41%
dose excreted at 24 h [41]: 14%
dose excreted at 24 h [42]: 32%

Cc1cc2ncc(C(=O)NCC(C)(C)NCC(=O)N3CCC[C@H]3C#N)c(C(F)(F)F)n2n1
pIC50 (Dipeptidyl peptidase 8): < 4.00

Cc1cc2ncc(C(=O)NCC(C)(C)NCC(=O)N3CCC[C@H]3C#N)cn2n1
inhibition (Rattus norvegicus [43]): Dose-dependent effect
Activity (Rattus norvegicus [44]): Active
Activity (Rattus norvegicus [45]): Active

Cc1cc2ncc(C(=O)NCC(C)(C)NCC(=O)N3CCC[C@H]3C#N)cn2n1 [ANAGLIPTIN]
pIC50 (Dipeptidyl peptidase 2): 3.75
